In patent US10112950B2, “Substituted imidazo[1,2-a]pyrazines as LSD1 inhibitors” (Incyte Corporation, priority 2014, dated 2018):

Target: LSD-1 enzyme (Homo sapiens (Human), UniProt O60341)
Assay: LANCE LSD1/KDM1A demethylase assay (LSD1 histone demethylase biochemical assay)
Conditions: 1 nM LSD-1 enzyme, 1 hour preincubation at 25° C., 0.4 μM Biotin-labeled Histone H3 peptide substrate
Method: LSD1 Histone Demethylase Biochemical Assay
LANCE LSD1/KDM1A demethylase assay-10 μL of 1 nM LSD-1 enzyme (ENZO BML-SE544-0050) in the assay buffer (50 mM Tris, pH 7.5, 0.01% Tween-20, 25 mM NaCl, 5 mM DTT) were preincubated for 1 hour at 25° C. with 0.8 μL compound/DMSO dotted in black 384 well polystyrene plates. […] Reactions were stopped by addition of 10 μL 1× LANCE Detection Buffer (PerkinElmer CR97-100) supplemented with 1.5 nM Eu-anti-unmodified H3K4 Antibody (PerkinElmer TRF0404), and 225 nM LANCE Ultra Streptavidin (PerkinElmer TRF102) along with 0.9 mM Tranylcypromine-HCl (Millipore 616431). After stopping the reactions plates were incubated for 30 minutes and read on a PHERAstar FS plate reader (BMG Labtech).

`Cc1ccc(-c2c(-c3ccc(C#N)cc3)nc(OC[C@@H]3CCCN(C)C3)c3nccn23)cc1CC#N` [Example 91, 4-(5-[3-(cyanomethyl)-4-methylphenyl]-8-{[(3R)-1-methylpiperidin-3-yl]methoxy}imidazo[1,2-a]pyrazin-6-yl)benzonitrile] showed an IC50 of at most 50 nM.

Compound `Cc1cc(-c2c(-c3ccc(C#N)cc3)nc(N3CCC(N(C)C)CC3)c3nccn23)cnc1C` [Example 92, 4-[8-[4-(dimethylamino)piperidin-1-yl]-5-(5,6-dimethylpyridin-3-yl)imidazo[1,2-a]pyrazin-6-yl]benzonitrile] has an IC50 of at most 50 nM.

With `Cc1ncc(-c2c(-c3ccc(C#N)cc3)nc(N3CCC(N(C)C)CC3)c3nccn23)cc1O` [Example 94, 4-[8-[4-(dimethylamino)piperidin-1-yl]-5-(5-hydroxy-6-methylpyridin-3-yl)imidazo[1,2-a]pyrazin-6-yl]benzonitrile] the IC50 was at most 50 nM.

Compound `Cc1ccc(-c2c(-c3ccc(C#N)cc3)nc(N3CCC(N(C)C)CC3)c3nccn23)cc1CO` [Example 96, 4-{8-[4-(dimethylamino)piperidin-1-yl]-5-[3-(hydroxymethyl)-4-methylphenyl]imidazo[1,2-a]pyrazin-6-yl}benzonitrile] has an IC50 of at most 50 nM.

Compound `Cc1cc(-c2c(-c3ccc(C#N)cc3)nc(N3CCC(N(C)C)CC3)c3nccn23)cc(F)c1CO` [Example 97, 4-{8-[4-(dimethylamino)piperidin-1-yl]-5-[3-fluoro-4-(hydroxymethyl)-5-methylphenyl]imidazo[1,2-a]pyrazin-6-yl}benzonitrile] has an IC50 of at most 50 nM.

`CN1C(=O)Cc2cc(-c3c(-c4ccc(C#N)cc4)nc(N4CCC(N(C)C)CC4)c4nccn34)ccc21` [Example 98, 4-[8-[4-(dimethylamino)piperidin-1-yl]-5-(1-methyl-2-oxo-2,3-dihydro-1H-indol-5-yl)imidazo[1,2-a]pyrazin-6-yl]benzonitrile] gave an IC50 of at most 50 nM.

Work on `CN(C)C1CCCN(c2nc(-c3ccc(C#N)cc3)c(-c3ccc(N4CCCC4=O)nc3)n3ccnc23)C1` (stereo not shown) [Example 99, 4-{8-[3-(dimethylamino)piperidin-1-yl]-5-[6-(2-oxopyrrolidin-1-yl)pyridin-3-yl]imidazo[1,2-a]pyrazin-6-yl}benzonitrile] yielded an IC50 of at most 50 nM.

For `CN1CCN(c2ccc(-c3c(-c4ccc(C#N)cc4)nc(N4CCC(N(C)C)CC4)c4nccn34)cn2)C1=O` [Example 100, 4-{8-[4-(dimethylamino)piperidin-1-yl]-5-[6-(3-methyl-2-oxoimidazolidin-1-yl)pyridin-3-yl]imidazo[1,2-a]pyrazin-6-yl}benzonitrile], the IC50 was at most 50 nM.

With `CN(C)C1CCN(c2nc(-c3ccc(C#N)cc3)c(-c3ccc4nccnc4c3)n3ccnc23)CC1` [Example 101, 4-{8-[4-(dimethylamino)piperidin-1-yl]-5-quinoxalin-6-ylimidazo[1,2-a]pyrazin-6-yl}benzonitrile] the IC50 was at most 50 nM.

Work on `CN1C(=O)CCc2cc(-c3c(-c4ccc(C#N)cc4)nc(N4CCC(N(C)C)CC4)c4nccn34)ccc21` [Example 102, 4-[8-[4-(dimethylamino)piperidin-1-yl]-5-(1-methyl-2-oxo-1,2,3,4-tetrahydroquinolin-6-yl)imidazo[1,2-a]pyrazin-6-yl]benzonitrile] yielded an IC50 of at most 50 nM.

For `CN(C)C1CCN(c2nc(-c3ccc(C#N)cc3)c(-c3cnc4c(c3)cc(CO)n4C)n3ccnc23)CC1` [Example 103, 4-{8-[4-(dimethylamino)piperidin-1-yl]-5-[2-(hydroxymethyl)-1-methyl-1H-pyrrolo[2,3-b]pyridin-5-yl]imidazo[1,2-a]pyrazin-6-yl}benzonitrile], the IC50 was at most 50 nM.

With `CCn1c(=O)oc2cc(-c3c(-c4ccc(C#N)cc4)nc(N4CCC(N(C)C)CC4)c4nccn34)cnc21` [Example 105, 4-[8-[4-(dimethylamino)piperidin-1-yl]-5-(3-ethyl-2-oxo-2,3-dihydro[1,3]oxazolo[4,5-b]pyridin-6-yl)imidazo[1,2-a]pyrazin-6-yl]benzonitrile] the IC50 was at most 50 nM.

`CN(C)C1CCN(c2nc(-c3ccc(C#N)cc3)c(-c3ccc4c(c3)ncn4C)n3ccnc23)CC1` [Example 106, 4-[8-[4-(dimethylamino)piperidin-1-yl]-5-(1-methyl-1H-benzimidazol-5-yl)imidazo[1,2-a]pyrazin-6-yl]benzonitrile] was tested, and the IC50 was at most 50 nM.

With `CN1C(=O)COc2cc(-c3c(-c4ccc(C#N)cc4)nc(N4CCC(N(C)C)CC4)c4nccn34)cnc21` [Example 107, 4-[8-[4-(dimethylamino)piperidin-1-yl]-5-(4-methyl-3-oxo-3,4-dihydro-2H-pyrido[3,2-b][1,4]oxazin-7-yl)imidazo[1,2-a]pyrazin-6-yl]benzonitrile] the IC50 was at most 50 nM.

Compound `CN1CCN(c2ccc(-c3c(-c4ccc(C#N)cc4)nc(N4CCC(N(C)C)CC4)c4nccn34)cn2)CC1=O` [Example 109, 4-{8-[4-(dimethylamino)piperidin-1-yl]-5-[6-(4-methyl-3-oxopiperazin-1-yl)pyridin-3-yl]imidazo[1,2-a]pyrazin-6-yl}benzonitrile] has an IC50 of at most 50 nM.

`CN(C)C1CCN(c2nc(-c3ccc(C#N)cc3)c(-c3ccc4c(c3)c(CO)nn4C)n3ccnc23)CC1` [Example 110, 4-{8-[4-(dimethylamino)piperidin-1-yl]-5-[3-(hydroxymethyl)-1-methyl-1H-indazol-5-yl]imidazo[1,2-a]pyrazin-6-yl}benzonitrile] was tested, and the IC50 was at most 50 nM.

With `CN1C(=O)Cc2cc(-c3c(-c4ccc(C#N)cc4)nc(N4CCC(N(C)C)CC4)c4nccn34)cnc21` [Example 111, 4-[8-[4-(dimethylamino)piperidin-1-yl]-5-(1-methyl-2-oxo-2,3-dihydro-1H-pyrrolo[2,3-b]pyridin-5-yl)imidazo[1,2-a]pyrazin-6-yl]benzonitrile] the IC50 was at most 50 nM.

In the case of `CN(C)C1CCN(c2nc(-c3ccc(C#N)cc3)c(-c3cnc4c(ccn4C)c3)n3ccnc23)CC1` [Example 112, 4-[8-[4-(dimethylamino)piperidin-1-yl]-5-(1-methyl-1H-pyrrolo[2,3-b]pyridin-5-yl)imidazo[1,2-a]pyrazin-6-yl]benzonitrile], the IC50 is reported as at most 50 nM.

`C[C@@H](O)c1nc2cc(-c3c(-c4ccc(C#N)cc4)nc(N4CCC(N(C)C)CC4)c4nccn34)ccc2n1C` [Example 113, 4-(8-[4-(dimethylamino)piperidin-1-yl]-5-{2-[(1R)-1-hydroxyethyl]-1-methyl-1H-benzimidazol-5-yl}imidazo[1,2-a]pyrazin-6-yl)benzonitrile] was tested, and the IC50 was at most 50 nM.

`Cc1nc2cc(-c3c(-c4ccc(C#N)cc4)nc(N4CCC(N(C)C)CC4)c4nccn34)ccc2n1C` [Example 115, 4-[8-[4-(dimethylamino)piperidin-1-yl]-5-(1,2-dimethyl-1H-benzimidazol-5-yl)imidazo[1,2-a]pyrazin-6-yl]benzonitrile] was tested, and the IC50 was at most 50 nM.

Compound `COc1ncc(-c2c(-c3ccc(C#N)cc3)nc(N3CCC(N(C)C)CC3)c3nccn23)cc1O` [Example 118, 4-[8-[4-(dimethylamino)piperidin-1-yl]-5-(5-hydroxy-6-methoxypyridin-3-yl)imidazo[1,2-a]pyrazin-6-yl]benzonitrile] has an IC50 of at most 50 nM.

`COc1ncc(-c2c(-c3ccc(C#N)cc3)nc(OC[C@@H]3CCCN(C)C3)c3nccn23)cc1O` [Example 119, 4-(5-(5-hydroxy-6-methoxypyridin-3-yl)-8-{[(3R)-1-methylpiperidin-3-yl]methoxy}imidazo[1,2-a]pyrazin-6-yl)benzonitrile] gave an IC50 of at most 50 nM.
